This experiment addresses T1, Capsid scaffolding protein (Human cytomegalovirus (strain AD169), UniProt P16753).
T1 sequence (P16753 whole entry): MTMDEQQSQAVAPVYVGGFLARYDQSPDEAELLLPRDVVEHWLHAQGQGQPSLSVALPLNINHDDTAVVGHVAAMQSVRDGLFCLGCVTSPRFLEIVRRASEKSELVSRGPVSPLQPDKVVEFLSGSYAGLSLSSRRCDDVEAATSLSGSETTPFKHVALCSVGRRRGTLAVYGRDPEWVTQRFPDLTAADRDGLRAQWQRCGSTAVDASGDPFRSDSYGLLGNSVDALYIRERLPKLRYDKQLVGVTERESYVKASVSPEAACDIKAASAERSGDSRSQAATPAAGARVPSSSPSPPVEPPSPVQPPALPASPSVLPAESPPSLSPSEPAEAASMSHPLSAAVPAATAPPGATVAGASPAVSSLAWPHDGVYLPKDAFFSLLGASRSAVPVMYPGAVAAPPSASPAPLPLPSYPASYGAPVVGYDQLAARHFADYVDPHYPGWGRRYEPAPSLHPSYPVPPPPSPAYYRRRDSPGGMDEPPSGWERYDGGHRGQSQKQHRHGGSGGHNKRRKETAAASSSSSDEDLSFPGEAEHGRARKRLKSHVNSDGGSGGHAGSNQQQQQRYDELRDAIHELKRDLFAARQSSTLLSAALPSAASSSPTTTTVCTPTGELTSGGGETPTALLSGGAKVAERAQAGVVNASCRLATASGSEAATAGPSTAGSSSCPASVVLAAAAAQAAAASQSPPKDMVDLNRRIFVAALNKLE
Nature of the experiment: HCMV antiviral assay. How it is done: Methods 21:293-298, 1990. […] After absorption of the lysate, the Hybriwix filters were hybridized overnight at 60° C.

This is an account of results in BindingDB's records for patent US10071110 (University of California, 2018).

The molecule `Nc1ncnc2c1ncn2CCOCP(=O)(O)O` [US10071110, Compound Adefovir] showed an EC50 of 55 µM.

In general, EC50 refers to the midpoint of the concentration-response curve. High values mean weaker potency, low ones greater potency.
